# Assay results reported in publication doi:10.1101/706168v1 (biorxiv, 2019).
# Experiments:
# [1] = target: TASK-1 (K2P3.1), wild type (Homo sapiens, UniProt O14649); test: two-electrode voltage clamp, Xenopus oocytes; type: cell-based
# [2] = target: T1, Kv4.3 (Homo sapiens, UniProt Q9UK17); test: cell-based
# T1 sequence (Q9UK17 1-655): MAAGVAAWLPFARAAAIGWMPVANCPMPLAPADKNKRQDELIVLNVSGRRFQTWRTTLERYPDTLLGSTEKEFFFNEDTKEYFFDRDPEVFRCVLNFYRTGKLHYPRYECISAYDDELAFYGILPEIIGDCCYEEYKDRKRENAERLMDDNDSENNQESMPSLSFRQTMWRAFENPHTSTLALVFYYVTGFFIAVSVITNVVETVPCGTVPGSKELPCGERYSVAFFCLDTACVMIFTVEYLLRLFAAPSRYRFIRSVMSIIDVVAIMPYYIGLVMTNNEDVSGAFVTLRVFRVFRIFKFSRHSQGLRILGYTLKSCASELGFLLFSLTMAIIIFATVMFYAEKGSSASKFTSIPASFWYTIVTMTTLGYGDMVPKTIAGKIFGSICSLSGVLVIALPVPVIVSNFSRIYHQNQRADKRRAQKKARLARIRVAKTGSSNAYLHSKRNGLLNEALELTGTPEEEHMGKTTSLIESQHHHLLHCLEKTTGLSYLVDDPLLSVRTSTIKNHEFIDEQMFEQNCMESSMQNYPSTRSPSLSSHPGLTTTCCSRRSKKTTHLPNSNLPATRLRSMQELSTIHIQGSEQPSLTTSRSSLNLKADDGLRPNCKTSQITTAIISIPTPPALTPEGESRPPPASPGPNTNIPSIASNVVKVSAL
# [3] = target: hERG (Homo sapiens, UniProt Q12809); test: cell-based
# Sequence of hERG (Q12809 whole entry): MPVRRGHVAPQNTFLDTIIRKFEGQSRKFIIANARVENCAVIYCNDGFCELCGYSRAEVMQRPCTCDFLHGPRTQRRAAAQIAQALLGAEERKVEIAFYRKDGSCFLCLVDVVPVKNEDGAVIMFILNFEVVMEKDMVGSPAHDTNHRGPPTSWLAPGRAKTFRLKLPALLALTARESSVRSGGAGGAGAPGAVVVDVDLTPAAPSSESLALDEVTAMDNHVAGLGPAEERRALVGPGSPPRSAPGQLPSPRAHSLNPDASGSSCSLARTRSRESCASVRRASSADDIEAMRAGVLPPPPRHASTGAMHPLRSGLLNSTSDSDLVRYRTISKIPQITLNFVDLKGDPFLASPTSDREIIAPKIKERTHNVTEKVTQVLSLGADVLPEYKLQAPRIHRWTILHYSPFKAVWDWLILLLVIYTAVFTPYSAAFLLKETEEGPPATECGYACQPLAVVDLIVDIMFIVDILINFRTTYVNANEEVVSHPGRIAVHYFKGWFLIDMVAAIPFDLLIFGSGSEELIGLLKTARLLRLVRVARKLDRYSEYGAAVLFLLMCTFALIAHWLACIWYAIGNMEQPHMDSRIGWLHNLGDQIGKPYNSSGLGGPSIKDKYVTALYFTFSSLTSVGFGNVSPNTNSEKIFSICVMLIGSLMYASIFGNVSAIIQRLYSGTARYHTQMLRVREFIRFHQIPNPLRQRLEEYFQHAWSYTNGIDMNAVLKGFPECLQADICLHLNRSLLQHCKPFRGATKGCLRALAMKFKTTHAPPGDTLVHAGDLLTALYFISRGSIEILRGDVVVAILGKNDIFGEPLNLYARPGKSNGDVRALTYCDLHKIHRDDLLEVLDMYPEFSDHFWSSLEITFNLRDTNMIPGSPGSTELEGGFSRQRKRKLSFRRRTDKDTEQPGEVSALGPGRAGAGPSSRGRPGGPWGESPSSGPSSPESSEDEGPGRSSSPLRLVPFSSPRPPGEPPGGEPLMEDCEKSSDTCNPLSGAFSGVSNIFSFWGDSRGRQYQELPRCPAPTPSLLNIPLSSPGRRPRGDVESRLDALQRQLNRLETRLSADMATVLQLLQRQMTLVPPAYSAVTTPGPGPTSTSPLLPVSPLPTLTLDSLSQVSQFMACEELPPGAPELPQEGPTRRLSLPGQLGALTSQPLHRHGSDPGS
# [4] = target: KCNQ1 (Homo sapiens, UniProt P51787); test: cell-based
# Sequence of KCNQ1 (P51787 whole entry): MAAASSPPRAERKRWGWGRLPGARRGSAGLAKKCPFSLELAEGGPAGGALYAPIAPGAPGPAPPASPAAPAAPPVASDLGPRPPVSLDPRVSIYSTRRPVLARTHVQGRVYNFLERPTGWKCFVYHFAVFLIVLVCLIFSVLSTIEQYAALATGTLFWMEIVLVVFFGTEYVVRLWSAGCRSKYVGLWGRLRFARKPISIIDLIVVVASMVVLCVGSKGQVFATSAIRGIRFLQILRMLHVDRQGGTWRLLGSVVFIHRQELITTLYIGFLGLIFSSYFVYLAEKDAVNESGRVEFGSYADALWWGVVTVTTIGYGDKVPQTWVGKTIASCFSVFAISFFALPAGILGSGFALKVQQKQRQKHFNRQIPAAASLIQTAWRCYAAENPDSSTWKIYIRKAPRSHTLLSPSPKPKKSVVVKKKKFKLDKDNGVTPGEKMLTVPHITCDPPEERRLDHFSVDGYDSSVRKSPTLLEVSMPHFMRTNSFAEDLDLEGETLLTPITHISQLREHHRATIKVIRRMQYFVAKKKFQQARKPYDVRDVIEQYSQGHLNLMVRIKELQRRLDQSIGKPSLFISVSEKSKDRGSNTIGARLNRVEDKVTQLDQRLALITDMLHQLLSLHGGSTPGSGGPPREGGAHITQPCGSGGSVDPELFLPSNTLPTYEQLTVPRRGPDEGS
# [5] = target: T2, HCN4 (Homo sapiens, UniProt Q9Y3Q4); test: cell-based
# T2 sequence (Q9Y3Q4 1-1203): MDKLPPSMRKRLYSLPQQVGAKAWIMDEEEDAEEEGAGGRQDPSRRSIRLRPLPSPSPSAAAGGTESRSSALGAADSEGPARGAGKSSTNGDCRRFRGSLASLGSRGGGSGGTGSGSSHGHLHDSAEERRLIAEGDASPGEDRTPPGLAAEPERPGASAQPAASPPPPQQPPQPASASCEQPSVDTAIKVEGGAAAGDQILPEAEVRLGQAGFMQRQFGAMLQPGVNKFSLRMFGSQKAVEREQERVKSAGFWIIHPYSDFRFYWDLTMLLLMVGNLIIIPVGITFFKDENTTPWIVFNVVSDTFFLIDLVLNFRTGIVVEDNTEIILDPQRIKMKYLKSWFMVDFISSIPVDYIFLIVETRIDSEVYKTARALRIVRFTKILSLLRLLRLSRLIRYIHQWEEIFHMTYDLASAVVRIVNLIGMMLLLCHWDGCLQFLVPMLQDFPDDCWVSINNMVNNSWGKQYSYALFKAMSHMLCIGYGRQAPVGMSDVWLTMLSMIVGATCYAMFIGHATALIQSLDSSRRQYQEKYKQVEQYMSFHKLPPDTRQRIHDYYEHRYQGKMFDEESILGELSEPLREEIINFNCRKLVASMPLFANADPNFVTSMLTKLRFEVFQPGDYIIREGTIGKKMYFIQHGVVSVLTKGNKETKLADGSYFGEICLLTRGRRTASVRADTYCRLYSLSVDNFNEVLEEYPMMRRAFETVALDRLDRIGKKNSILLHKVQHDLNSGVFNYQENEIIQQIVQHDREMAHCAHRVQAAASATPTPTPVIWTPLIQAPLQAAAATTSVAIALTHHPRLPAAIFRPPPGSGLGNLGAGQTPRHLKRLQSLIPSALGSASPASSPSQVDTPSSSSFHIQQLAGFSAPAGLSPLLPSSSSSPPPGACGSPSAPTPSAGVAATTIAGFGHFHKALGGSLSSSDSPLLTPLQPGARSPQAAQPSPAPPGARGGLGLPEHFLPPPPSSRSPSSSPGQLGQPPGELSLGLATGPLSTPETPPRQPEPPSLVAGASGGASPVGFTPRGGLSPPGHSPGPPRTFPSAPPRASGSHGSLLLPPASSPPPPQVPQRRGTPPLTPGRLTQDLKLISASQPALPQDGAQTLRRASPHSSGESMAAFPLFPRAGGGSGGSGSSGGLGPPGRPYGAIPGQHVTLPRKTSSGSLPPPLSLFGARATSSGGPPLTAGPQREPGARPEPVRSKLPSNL
# [6] = target: TRPV4 (Homo sapiens, UniProt Q9HBA0); test: cell-based
# Sequence of TRPV4 (Q9HBA0 whole entry): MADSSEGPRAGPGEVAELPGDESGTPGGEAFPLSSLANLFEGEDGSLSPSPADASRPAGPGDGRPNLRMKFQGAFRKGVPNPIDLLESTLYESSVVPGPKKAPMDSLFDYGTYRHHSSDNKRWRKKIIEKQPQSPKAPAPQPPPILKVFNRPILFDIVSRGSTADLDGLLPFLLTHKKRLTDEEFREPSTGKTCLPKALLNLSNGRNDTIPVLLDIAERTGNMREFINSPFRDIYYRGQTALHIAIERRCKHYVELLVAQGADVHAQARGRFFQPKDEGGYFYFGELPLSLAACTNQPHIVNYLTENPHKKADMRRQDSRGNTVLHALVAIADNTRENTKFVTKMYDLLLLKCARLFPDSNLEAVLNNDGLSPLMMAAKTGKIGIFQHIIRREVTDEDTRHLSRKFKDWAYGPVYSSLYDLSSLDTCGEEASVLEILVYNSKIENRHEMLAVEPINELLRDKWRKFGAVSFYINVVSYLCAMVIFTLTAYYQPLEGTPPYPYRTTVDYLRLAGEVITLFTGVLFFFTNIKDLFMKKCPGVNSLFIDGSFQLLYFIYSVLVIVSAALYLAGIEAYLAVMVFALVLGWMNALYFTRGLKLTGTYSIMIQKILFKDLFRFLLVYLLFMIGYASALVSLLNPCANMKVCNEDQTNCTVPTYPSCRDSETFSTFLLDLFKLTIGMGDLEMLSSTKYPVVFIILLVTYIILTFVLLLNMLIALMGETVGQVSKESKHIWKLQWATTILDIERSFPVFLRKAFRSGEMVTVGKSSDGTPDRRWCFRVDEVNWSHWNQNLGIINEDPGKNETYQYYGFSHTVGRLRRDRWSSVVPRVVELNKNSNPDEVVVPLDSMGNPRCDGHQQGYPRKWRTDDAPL
# Sequence of TASK-1 (K2P3.1), wild type (O14649 whole entry): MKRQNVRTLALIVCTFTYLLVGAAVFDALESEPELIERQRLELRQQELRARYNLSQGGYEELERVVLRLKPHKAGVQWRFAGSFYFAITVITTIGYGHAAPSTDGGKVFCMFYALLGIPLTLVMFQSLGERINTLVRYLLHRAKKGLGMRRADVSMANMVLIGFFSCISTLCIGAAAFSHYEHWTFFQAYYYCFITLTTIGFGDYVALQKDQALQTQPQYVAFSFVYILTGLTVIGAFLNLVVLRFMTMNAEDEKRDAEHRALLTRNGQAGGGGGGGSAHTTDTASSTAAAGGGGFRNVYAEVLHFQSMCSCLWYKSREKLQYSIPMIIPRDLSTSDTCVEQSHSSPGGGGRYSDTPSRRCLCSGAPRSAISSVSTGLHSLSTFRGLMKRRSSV
structure (smiles),measurement,setting,value
"O=C(c1ccccc1F)N1CCN(Cc2c(-c3ccc(Br)cc3)nc3ccccn23)CC1 [BAY 1000493, (4-{[2-(4-bromophenyl)imidazo[1,2-a]pyridin-3-yl]methyl}vpiperazin-1-yl)(2-fluorophenyl)methanone]",EC50,[1],0.0095 µM
same,IC50,[2],> 10 µM
same,IC50,[3],2.4 µM
same,IC50,[4],> 30 µM
same,IC50,[5],> 30 µM
same,IC50,[6],> 30 µM
